{"source": "patent US9526782B2", "about": "“Pharmaceutical compositions comprising inhibitors of zinc-ZIP8-MTF1 as active ingredients for preventing or treating a joint disease” (GWANGJU INSTITUTE OF SCIENCE AND TECHNOLOGY, priority 2014, dated 2016)", "key": {"ZIP8 [1]": {"biological_target": "T1, ZIP8 (Mus musculus, UniProt Q91W10)", "T1 construct": "host or cells: primary mouse articular chondrocytes infected with Ad-Zip8", "T1 sequence (Q91W10 20-462)": "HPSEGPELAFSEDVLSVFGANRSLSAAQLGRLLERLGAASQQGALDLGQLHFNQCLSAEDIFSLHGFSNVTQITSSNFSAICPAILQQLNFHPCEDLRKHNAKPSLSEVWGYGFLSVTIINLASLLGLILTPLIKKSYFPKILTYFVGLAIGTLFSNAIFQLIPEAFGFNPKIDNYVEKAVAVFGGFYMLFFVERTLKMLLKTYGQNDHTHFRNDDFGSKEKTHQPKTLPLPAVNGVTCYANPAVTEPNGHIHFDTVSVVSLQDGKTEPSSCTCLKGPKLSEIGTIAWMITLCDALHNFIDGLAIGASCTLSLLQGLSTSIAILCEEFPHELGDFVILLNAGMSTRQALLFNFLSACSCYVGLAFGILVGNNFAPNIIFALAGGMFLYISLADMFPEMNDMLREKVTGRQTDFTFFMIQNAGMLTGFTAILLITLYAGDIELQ", "assay": "Zn^2+ imaging and quantitation with FluoZin-3 AM in primary cultured articular chondrocytes", "format": "cell-based", "conditions": "for ZIP8-mediated increase in Zn^2+ influx: chondrocytes infected with Ad-Zip8, with the test agent; for IL1β-caused influx of Zn^2+ in chondrocytes, effect of the test agent: chondrocytes treated with IL1β; for cellular Zn^2+ level, effect of the substance itself: chondrocytes", "method": "Chondrocytes were maintained as a monolayer in Dulbecco's Modified Eagle's Medium (DMEM) supplemented with 10% fetal bovine serum (FBS) and antibiotics, and cells at culture day 2 were treated as indicated in each experiment.\n(§1) Adenoviruses expressing mouse Zip8 (Ad-Zip8) and Mtf1 (Ad-Mtf1) were purchased from Vector Biolabs. Mouse articular chondrocytes were cultured for 2 days, infected with empty virus (Ad-C), Ad-Zip8, or Ad-Mtf1 for 2 hours at the indicated multiplicity of infection (MOI), and cultured for 24 hours, followed by further analyses.\nIntracellular Zn^2+ was detected using the Zn^2+-selective fluorophore, FluoZin-3 AM (Invitrogen). […] Cells were then washed with Ca^2+- and Mg^2+-free phosphate-buffered saline (PBS) and incubated for an additional 30 minutes at 37° C. Intracellular Zn^2+ images were acquired with a fluorescence microscope, and population-wide fluorescence intensity was measured using a Spectramax Gemini microplate fluorescence reader (Molecular Devices) with excitation at 488 nm, cut-off at 515 nm, and emission at 530 nm.\n(§2) Transcript levels were quantified by qRT-PCR. siRNAs targeting Zip8 and Mtf1 were obtained from Dharmacon and transfected using Lipofectamine 2000. Non-targeting (scrambled) siRNA was used as a negative control. Chondrocytes were transfected by incubating for 6 hours with siRNA and Lipofectamine 2000 (Invitrogen), and infected with adenoviruses as described above. Therapeutic antibodies for obstruction of ZIP8 function were purchased from Santa Cruz Biotechnology and MyBioSource Company, and treated in chondrocytes for 24 hours."}, "[2]": {"test_system": "matrix-degrading enzymes (MMP3, MMP9, MMP12, MMP13, and ADAMTS5)", "assay": "mRNA (qRT-PCR) and protein (Western blotting) levels of matrix-degrading enzymes in chondrocytes", "format": "cell-based, mouse", "conditions": "for Ad-Mtf1-induced upregulation of matrix-degrading enzymes, effect of the test agent: chondrocytes infected with Ad-Mtf1; for upregulation of MMP3, MMP13, and ADAMTS5 by IL1β, effect of the test agent: chondrocytes treated with IL1β; for inhibitory effects of TPEN on the ZIP8-mediated expression of matrix-degrading enzymes, effect of pre-incubation of TPEN with the metal salt: Ad-Zip8 chondrocytes, TPEN 1 μM pre-incubated with 1 μM metal ion; for expression of matrix-degrading enzymes caused by the substance itself: chondrocytes, metal salts 100 μM (CdCl2 1 μM)", "method": "as §1\n(§3) Total RNA was extracted from primary cultured chondrocytes using the TRI reagent (Molecular Research Center Inc.). For the isolation of RNA from knee joints, cartilage tissues were scraped with a blade to remove cartilage, and RNA was isolated using the TRI reagent and Purelink RNA mini kit (Ambion). The RNA was reverse transcribed, and the resulting cDNA was amplified by PCR.\nas §2\nTotal cell lysates were prepared in lysis buffer (150 mM NaCl, 1% NP-40, 50 mM Tris, 5 mM NaF) and used to detect cellular proteins (ZIP8, MTF1, and ERK). Secreted proteins (MMP3, MMP13, and ADAMTS5) were detected after trichloroacetic acid (TCA) precipitation from 900 μl of serum-free conditioned medium. All lysis buffers contained a cocktail of protease inhibitors and phosphatase inhibitors (Roche)."}, "ZIP8 [3]": {"test_system": "ZIP8", "assay": "Expression levels of metal ion transporters in chondrocytes treated with IL1β", "format": "cell-based", "conditions": "primary cultures of mouse articular chondrocytes", "from_the_text": "FIG. 1a represents mRNA levels of metal ion transporters determined by qRT-PCR in articular chondrocytes treated with IL1β (n=10). Insert is Western blotting of ZIP8 in chondrocytes treated with IL1β.\nas §3"}, "MTF1": {"biological_target": "T2, MTF1 (Mus musculus, UniProt Q07243)", "T2 construct": "endogenous in cells; host or cells: primary mouse articular chondrocytes", "T2 sequence (Q07243 whole entry)": "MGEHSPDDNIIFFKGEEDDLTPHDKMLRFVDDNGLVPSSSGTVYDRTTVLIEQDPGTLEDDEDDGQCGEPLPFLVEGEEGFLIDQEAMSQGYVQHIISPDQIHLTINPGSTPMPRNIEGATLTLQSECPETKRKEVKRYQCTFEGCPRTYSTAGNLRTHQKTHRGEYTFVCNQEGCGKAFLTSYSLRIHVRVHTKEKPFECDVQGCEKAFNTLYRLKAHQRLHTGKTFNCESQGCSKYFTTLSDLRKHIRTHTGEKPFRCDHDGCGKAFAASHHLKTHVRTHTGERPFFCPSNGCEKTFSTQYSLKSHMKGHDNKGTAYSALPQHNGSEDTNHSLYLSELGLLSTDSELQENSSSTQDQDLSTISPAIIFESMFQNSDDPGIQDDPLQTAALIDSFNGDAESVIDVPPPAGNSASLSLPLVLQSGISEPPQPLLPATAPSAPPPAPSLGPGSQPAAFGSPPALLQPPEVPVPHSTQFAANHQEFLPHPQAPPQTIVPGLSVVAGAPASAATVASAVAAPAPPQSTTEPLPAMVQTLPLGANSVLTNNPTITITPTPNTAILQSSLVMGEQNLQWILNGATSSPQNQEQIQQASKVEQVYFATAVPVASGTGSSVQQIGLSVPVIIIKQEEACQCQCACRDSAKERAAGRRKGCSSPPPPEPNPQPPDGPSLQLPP", "assay": "MTF1 activity reporter gene assay and immunostaining in chondrocytes", "format": "cell-based", "conditions": "for inhibitory effects of TPEN on MTF1 transcriptional activity, effect of pre-incubation of TPEN with the metal salt: Ad-Zip8 chondrocytes, TPEN 1 μM pre-incubated with 1 μM metal ion; for MTF1 transcriptional activity, effect of the substance itself: chondrocytes, reporter gene assay", "method": "The MTF1 reporter gene assay kit was obtained from SABiosciences. Chondrocytes were transfected for 6 hours with a metal response element (MRE) reporter construct and a constitutive Renilla luciferase construct using Lipofectamine 2000 (Invitrogen). Transfected cells were infected with Ad-Mtf1 or Ad-Zip8 for 2 hours or treated with metal ions. Cells were harvested 24 hours after treatment, and firefly luciferase and Renilla luciferase activities were measured using a Dual Luciferase Assay System (Promega). […] MTF1 was detected by immunofluorescence microscopy. Images were acquired using a fluorescence microscope, and at least 200 cells were examined in multiple fields per condition to quantify the percentage of nuclear MTF1-positive cells."}, "mouse knee joints": {"test_system": "mouse knee joints", "assay": "Experimental OA induced by IA injection of adenovirus into mouse knee joints, histology and immunostaining", "format": "in vivo", "conditions": "0.1 mg/kg body weight", "from_the_text": "Male mice (C57BL/6, Col2a1-Zip8 TG, Zip8^+/−, Zip8^fl/fl; Zip8^fl/fl; Col2a1-Cre, Mtf1^+/−, Mtf1^fl/fl, Mtf1^fl/fl; Col2a1-Cre, Mt1^−/−; Mt2^−/−) were used for experimental OA studies. Chondrocyte-specific Zip8 TG (Col2a1-Zip8) mice were generated using the Col2a1 promoter and enhancer. Zip8^+/− mice were obtained from The European Mouse Mutant Archive. The Mtf1 mouse strain used for this research project was created from an ES cell clone generated by the Wellcome Trust Sanger Institute and developed into mice by the KOMP Repository and the Mouse Biology Program at the University of California, Davis. Zip8^+/− and Mtf1^+/− mice were backcrossed with Actb-Flp1 TG mice (The Jackson Laboratory) to generate Zip8fl/fl and Mtf1fl/fl mice, respectively. These mice were then backcrossed with Col2a1-Cre TG mice (The Jackson Laboratory) to generate chondrocyte-specific CKO mice (Zip8^fl/fl; Col2a1-Cre and Mtf1^fl/fl; Col2a1-Cre). Mt1^−/−, Mt2^−/− double-KO mice were obtained from The Jackson Laboratory. […]\nHuman OA cartilage was frozen, sectioned at 10-μm thickness, and fixed in paraformaldehyde. Sulfate proteoglycan was detected with alcian blue staining. Human ZIP8 was detected by immunostaining. […] Sections were deparaffinized in xylene, hydrated with graded ethanol, and stained with safranin-O. Cartilage destruction was scored by two blinded observers using the OARSI grading system (Glasson et al., 2010). Synovitis was determined by safranin-O and hematoxylin staining, and synovial inflammation (grade 0-3) was scored as described previously (Yang et al., 2010). Osteophyte development was identified by safranin-O staining, and osteophyte maturity was quantified as described previously (Oh et al., 2012). Subchondral bone sclerosis was determined by measuring the thickness of the subchondral bone plate (Zhen et al., 2013). Antibodies used for immunostaining of cartilage sections are as follows: ZIP8 and MTF1 in human cartilage tissue sections were detected by antibodies obtained from Proteintech (20459-1-AP) and Novus (NBP1-86380), respectively. […]"}, "[4]": {"conditions": "chondrocytes infected with Ad-Zip8"}}, "note": "Where two headings read alike, the source gives them in different places."}
{"compound": "O=C(O)CN(CCN(CC(=O)O)CC(=O)O)CC(=O)O.[Ca]", "note": "[CaEDTA, calcium-saturated EDTA]", "values": [{"measurement": "ZIP8-mediated increase in Zn^2+ influx", "setting": "ZIP8 [1]", "result": "abolished"}, {"measurement": "IL1β-caused influx of Zn^2+ in chondrocytes, effect of the test agent", "setting": "ZIP8 [1]", "result": "blocked"}, {"measurement": "Ad-Mtf1-induced upregulation of matrix-degrading enzymes, effect of the test agent", "setting": "[2]", "result": "abolished"}, {"measurement": "Ad-Zip8 (ZIP8)-induced upregulation of matrix-degrading enzymes, effect of the test agent", "setting": "[2]; [4]", "result": "blocked"}, {"measurement": "upregulation of MMP3, MMP13, and ADAMTS5 by IL1β, effect of the test agent", "setting": "[2]", "result": "abolished"}]}
{"compound": "IL1β: proinflammatory cytokine that promotes catabolism in arthritic cartilage", "values": [{"measurement": "cellular Zn^2+ level, effect of the substance itself", "setting": "ZIP8 [1]", "result": "caused an influx of Zn^2+"}, {"measurement": "cellular Zn^2+ level, effect of the substance itself", "setting": "ZIP8 [1]; listed as IL-1", "result": "increases"}, {"measurement": "ZIP8 expression levels", "setting": "ZIP8 [3]", "result": "markedly increased"}]}
{"compound": "[Cl][Fe][Cl]", "note": "[FeCl2]", "values": [{"measurement": "inhibitory effects of TPEN on the ZIP8-mediated expression of matrix-degrading enzymes, effect of pre-incubation of TPEN with the metal salt", "setting": "[2]", "result": "no significant effects"}, {"measurement": "expression of matrix-degrading enzymes caused by the substance itself", "setting": "[2]", "result": "moderate expression"}, {"measurement": "inhibitory effects of TPEN on MTF1 transcriptional activity, effect of pre-incubation of TPEN with the metal salt", "setting": "MTF1", "result": "not"}, {"measurement": "MTF1 transcriptional activity, effect of the substance itself", "setting": "MTF1", "result": "no effect"}]}
{"compound": "c1ccc(CN(CCN(Cc2ccccn2)Cc2ccccn2)Cc2ccccn2)nc1", "note": "[TPEN, N,N,N′,N′-tetrakis (2-pyridylmethyl)ethylenediamine]", "values": [{"measurement": "ZIP8-mediated increase in Zn^2+ influx", "setting": "ZIP8 [1]", "result": "abolished"}, {"measurement": "IL1β-caused influx of Zn^2+ in chondrocytes, effect of the test agent", "setting": "ZIP8 [1]", "result": "blocked"}, {"measurement": "Ad-Mtf1-induced upregulation of matrix-degrading enzymes, effect of the test agent", "setting": "[2]", "result": "abolished"}, {"measurement": "Ad-Zip8 (ZIP8)-induced upregulation of matrix-degrading enzymes, effect of the test agent", "setting": "[2]; [4]", "result": "blocked"}, {"measurement": "upregulation of MMP3, MMP13, and ADAMTS5 by IL1β, effect of the test agent", "setting": "[2]", "result": "abolished"}, {"measurement": "MTF1 transcriptional activity in Ad-Zip8-infected chondrocytes, effect of the test agent", "setting": "MTF1; 800 MOI of Ad-Zip8, TPEN 1 μM", "result": "inhibitory effects"}, {"measurement": "Ad-Zip8-induced MMP expression, effect of co-injection", "setting": "mouse knee joints", "result": "significantly blocked"}, {"measurement": "Ad-Zip8-induced cartilage destruction, effect of co-injection", "setting": "mouse knee joints", "result": "significantly blocked"}, {"measurement": "Ad-Zip8-induced synovitis, effect of co-injection", "setting": "mouse knee joints", "result": "significantly blocked"}]}
{"compound": "[Cl][Cd][Cl]", "note": "[CdCl2]", "values": [{"measurement": "inhibitory effects of TPEN on the ZIP8-mediated expression of matrix-degrading enzymes, effect of pre-incubation of TPEN with the metal salt", "setting": "[2]", "result": "no significant effects"}, {"measurement": "MMP12 expression", "setting": "[2]; chondrocytes treated with metal ion", "result": "modest induction"}, {"measurement": "expression of matrix-degrading enzymes caused by the substance itself", "setting": "[2]", "result": "did not cause a marked expression"}, {"measurement": "expression of matrix-degrading enzymes caused by the substance itself", "setting": "[2]; listed as Cd^2+", "result": "no significant effect"}, {"measurement": "inhibitory effects of TPEN on MTF1 transcriptional activity, effect of pre-incubation of TPEN with the metal salt", "setting": "MTF1", "result": "not"}, {"measurement": "MTF1 transcriptional activity, effect of the substance itself", "setting": "MTF1", "result": "moderate activation"}]}
{"compound": "[Cl][Mn][Cl]", "note": "[MnCl2]", "values": [{"measurement": "inhibitory effects of TPEN on the ZIP8-mediated expression of matrix-degrading enzymes, effect of pre-incubation of TPEN with the metal salt", "setting": "[2]", "result": "no significant effects"}, {"measurement": "expression of matrix-degrading enzymes caused by the substance itself", "setting": "[2]", "result": "did not cause a marked expression"}, {"measurement": "inhibitory effects of TPEN on MTF1 transcriptional activity, effect of pre-incubation of TPEN with the metal salt", "setting": "MTF1", "result": "not"}, {"measurement": "MTF1 transcriptional activity, effect of the substance itself", "setting": "MTF1", "result": "no effect"}]}
{"compound": "mithramycin-A", "values": [{"measurement": "Ad-Zip8 (ZIP8)-induced upregulation of matrix-degrading enzymes, effect of the test agent", "setting": "[2]", "result": "significantly attenuated"}]}
{"compound": "c1ccc(-c2ccccn2)nc1", "note": "[2,2-bipyridyl]", "values": [{"measurement": "Ad-Zip8 (ZIP8)-induced upregulation of matrix-degrading enzymes, effect of the test agent", "setting": "[2]; [4]", "result": "did not affect"}]}
